Biological target: T1, McSTING (Mytilus coruscus, UniProt A0A7U0FWW1)
T1 construct: gene STING-3; full-length 1-716aa, pColdIII vector, expressed in E. coli Rosetta
Assay: SPR (OpenSPR, McSTING immobilised on COOH chip)
Format: binding
Source text: SPR (OpenSPR, McSTING immobilised on COOH chip) on McSTING | concentration-dependent binding of the recombinant protein McSTING to synthetic c-di-GMP with a KD of […]

T1 sequence (A0A7U0FWW1 entry or part of it): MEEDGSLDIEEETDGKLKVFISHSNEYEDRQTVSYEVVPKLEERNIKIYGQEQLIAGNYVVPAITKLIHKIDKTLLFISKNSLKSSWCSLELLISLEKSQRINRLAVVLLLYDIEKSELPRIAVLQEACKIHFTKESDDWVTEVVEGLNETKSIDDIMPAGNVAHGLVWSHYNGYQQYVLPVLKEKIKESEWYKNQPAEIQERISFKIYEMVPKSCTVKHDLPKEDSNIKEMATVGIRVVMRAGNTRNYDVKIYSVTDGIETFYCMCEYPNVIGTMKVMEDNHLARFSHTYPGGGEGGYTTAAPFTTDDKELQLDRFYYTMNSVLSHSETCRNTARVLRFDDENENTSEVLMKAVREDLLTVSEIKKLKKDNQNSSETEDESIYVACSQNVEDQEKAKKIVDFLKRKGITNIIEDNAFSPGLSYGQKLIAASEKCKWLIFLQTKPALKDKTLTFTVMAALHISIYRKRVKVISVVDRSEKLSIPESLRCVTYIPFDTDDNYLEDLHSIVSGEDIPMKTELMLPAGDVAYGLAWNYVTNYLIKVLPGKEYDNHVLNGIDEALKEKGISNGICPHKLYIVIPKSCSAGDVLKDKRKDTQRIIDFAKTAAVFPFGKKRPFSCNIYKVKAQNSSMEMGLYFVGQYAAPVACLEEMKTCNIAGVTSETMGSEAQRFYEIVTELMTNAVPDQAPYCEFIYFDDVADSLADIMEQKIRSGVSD

Kd: 42.7 µM
SMILES: Nc1nc2c(ncn2[C@@H]2O[C@@H]3CO[P@](=O)(O)O[C@H]4[C@@H](O)[C@H](n5cnc6c(=O)[nH]c(N)nc65)O[C@@H]4CO[P@](=O)(O)O[C@H]3[C@H]2O)c(=O)[nH]1 [c-di-GMP]

Source: article PMC11190208, “Bacterial c-di-GMP triggers metamorphosis of mussel larvae through a STING receptor” (NPJ Biofilms and Microbiomes, 2024)
